Reference: the supplement of paper PMC10307832

Legend:
Assay in all cases: relative viability (nuclei count vs DMSO), 5 days (fraction); higher = more cells survive
[1] = compound: O=C(CCCCCCNC(=O)c1cnc(N(c2ccccc2)c2ccccc2)nc1)NO [Ricolinostat] + N=C(N)NC(=N)NCCc1ccccc1 [Phenformin] (partner 250 µM)
Outline: (§1)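 Lung cancer cell lines were pin-tool dosed in 1536-well plates on the day after seeding, with either a lone drug or a fixed anchor-drug dose plus five library-drug doses (not always all listed) in √10 steps. Nuclei were counted on 4× images after 5 days. Relative viability is the ratio of treated-well to vehicle-well nuclei counts, with each value a median of duplicate plates.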

[2] = compound: O=C(CCCCCCNC(=O)c1cnc(N(c2ccccc2)c2ccccc2)nc1)NO [Ricolinostat] + C[C@@H](Oc1cc(-c2cnn(C3CCNCC3)c2)cnc1N)c1c(Cl)ccc(F)c1Cl [Crizotinib] (partner 1 µM)
Outline: as §1

[3] = compound: C1=CC=C(C(=C1)C2=CC=C(C=C2)C3=CSC4=C3C(=C(C(=O)N4)C#N)O)O + C[C@]1(O)C[C@@H](c2nc(-c3ccc4ccc(-c5ccccc5)nc4c3)c3c(N)nccn32)C1 [Linsitinib] (partner 1 µM)
Outline: as §1

[4] = compound: CC1=CN2C(=O)C=C(N=C2C(=C1)C(C)NC3=CC=CC=C3)N4CCOCC4 [TGX 221] + Nc1ncn([C@H]2C[C@H](O)[C@@H](CO)O2)c(=O)n1 [Decitabine] (partner 2 µM)
Outline: as §1

Cell Line: NCI-H1792
- relative viability ([1]; first compound 0.08 µM): 0.29
- relative viability ([1]; first compound 0.253 µM): 0.233
- relative viability ([1]; first compound 0.8 µM): 0.178
- relative viability ([1]; first compound 2.53 µM): 0.245
- relative viability ([2]; first compound 0.08 µM): 0.849
- relative viability ([2]; first compound 0.253 µM): 0.988
- relative viability ([2]; first compound 0.8 µM): 0.913
- relative viability ([2]; first compound 2.53 µM): 1
- relative viability ([3]; first compound 0.253 µM): 0.436
- relative viability ([3]; first compound 0.8 µM): 0.542
- relative viability ([3]; first compound 2.53 µM): 0.474
- relative viability ([3]; first compound 8 µM): 0.317
- relative viability ([4]; first compound 0.08 µM): 0.522
- relative viability ([4]; first compound 0.253 µM): 0.479
- relative viability ([4]; first compound 0.8 µM): 0.549
- relative viability ([4]; first compound 2.53 µM): 0.454
- relative viability ([4]; first compound 8 µM): 0.362
